Data from the supplement of paper PMC10307832.

What was measured:
Assay in all cases: relative viability (nuclei count vs DMSO), 5 days (fraction); higher = more cells survive
IPA-3 + Alpelisib = compound: C1=CC=C2C(=C1)C=CC(=C2SSC3=C(C=CC4=CC=CC=C43)O)O [IPA-3] + Cc1nc(NC(=O)N2CCC[C@H]2C(N)=O)sc1-c1ccnc(C(C)(C)C(F)(F)F)c1 [Alpelisib] (partner 2 µM)
Summary of the method: (§1)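 Values are medians from duplicate plates. Each reflects relative viability, defined as the nuclei count of treated wells over that of vehicle wells. Lung cancer cell lines in 1536-well plates were pin-tool dosed one day after seeding with one drug alone or with a fixed anchor-drug dose plus five library-drug doses (not always all listed) in √10 steps, then fixed, stained and imaged at 4× after 5 days.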

IPA-3 + Pemetrexed = compound: C1=CC=C2C(=C1)C=CC(=C2SSC3=C(C=CC4=CC=CC=C43)O)O [IPA-3] + Nc1nc2[nH]cc(CCc3ccc(C(=O)N[C@@H](CCC(=O)O)C(=O)O)cc3)c2c(=O)[nH]1 [Pemetrexed] (partner 0.2 µM)
Summary of the method: as §1

Doramapimod + Navitoclax = compound: Cc1ccc(-n2nc(C(C)(C)C)cc2NC(=O)Nc2ccc(OCCN3CCOCC3)c3ccccc23)cc1 [Doramapimod] + CC1(C)CCC(c2ccc(Cl)cc2)=C(CN2CCN(c3ccc(C(=O)NS(=O)(=O)c4ccc(N[C@H](CCN5CCOCC5)CSc5ccccc5)c(S(=O)(=O)C(F)(F)F)c4)cc3)CC2)C1 [Navitoclax] (partner 0.5 µM)
Summary of the method: as §1

Doramapimod + Lapatinib = compound: Cc1ccc(-n2nc(C(C)(C)C)cc2NC(=O)Nc2ccc(OCCN3CCOCC3)c3ccccc23)cc1 [Doramapimod] + CS(=O)(=O)CCNCc1ccc(-c2ccc3ncnc(Nc4ccc(OCc5cccc(F)c5)c(Cl)c4)c3c2)o1 [Lapatinib] (partner 2 µM)
Summary of the method: as §1

## UMC-11
IPA-3 + Alpelisib; first compound 0.2 µM
  relative viability: 1.22
IPA-3 + Alpelisib; first compound 0.6325 µM
  relative viability: 0.962
IPA-3 + Alpelisib; first compound 2 µM
  relative viability: 1.07
IPA-3 + Alpelisib; first compound 6.325 µM
  relative viability: 1.01
IPA-3 + Alpelisib; first compound 20 µM
  relative viability: 1.07
IPA-3 + Pemetrexed; first compound 0.2 µM
  relative viability: 0.869
IPA-3 + Pemetrexed; first compound 0.6325 µM
  relative viability: 0.756
IPA-3 + Pemetrexed; first compound 2 µM
  relative viability: 0.83
IPA-3 + Pemetrexed; first compound 6.325 µM
  relative viability: 0.769
IPA-3 + Pemetrexed; first compound 20 µM
  relative viability: 0.943
Doramapimod + Navitoclax; first compound 0.02 µM
  relative viability: 0.304
Doramapimod + Navitoclax; first compound 0.06325 µM
  relative viability: 0.275
Doramapimod + Navitoclax; first compound 0.2 µM
  relative viability: 0.323
Doramapimod + Navitoclax; first compound 0.6325 µM
  relative viability: 0.344
Doramapimod + Navitoclax; first compound 2 µM
  relative viability: 0.271
Doramapimod + Lapatinib; first compound 0.02 µM
  relative viability: 1.09
Doramapimod + Lapatinib; first compound 0.06325 µM
  relative viability: 0.957
Doramapimod + Lapatinib; first compound 0.2 µM
  relative viability: 0.901
Doramapimod + Lapatinib; first compound 0.6325 µM
  relative viability: 0.743
Doramapimod + Lapatinib; first compound 2 µM
  relative viability: 0.654
